Test system: planaria
Experiment: planaria movement (worm mobility) after drug treatment, automated tracking
Type: in vivo, Dugesia tigrinia
Conditions: 24 hours of drug treatment, movement observed for three hours, compared to control carrier (water+DMSO), statistically significant
Protocol: The following methods were used for Examples 5-8. The species of planaria used in these studies was Dugesia tigrinia, obtained from Ward's Natural Science. The planaria colonies were stored in natural spring water at 22.5° C., and kept on a 9 hour light/15 hour dark cycle. The colonies were fed once per week with organic beef liver. Their water was changed several hours after feeding and 3 days following each feeding. Worms were not fed (e.g., they were starved) the week they were used in an experiment because starved worms were less likely to fission during the experiment.
For the duration of an experiment, individual worms were placed in a reaction well and a plurality of reaction wells were arrayed, as shown in FIG. 10. The worms were not fed during the experiment. Each reaction well included electrodes made of a 90%/10% platinum/iridium alloy for delivering current. […]
FIG. 16 summarizes results depicting the effects of two agents on planaria behavior. Specifically, we assessed the effects of two psychiatric drugs that modulate serotonergic signaling, p-chlorophenylalanine (PCPA) and reserpine, on worm mobility.
Briefly, planaria were cultured in the presence of control carrier (water+DMSO), 625 micrograms/mL of PCPA, or 21 micrograms/mL of reserpine. […] The speed, position, and distance traveled of individual worms were monitored following drug treatment and compared to controls. […]

Row | SMILES | effect on planaria movement (worm movement, average speed) (625 micrograms/mL in culture) | effect on planaria movement (worm movement, average speed) (21 micrograms/mL in culture)
1 | N[C@@H](Cc1ccc(Cl)cc1)C(=O)O (racemic) [PCPA, p-chlorophenylalanine] | increased planaria movement | –
2 | COC(=O)[C@H]1[C@H]2C[C@@H]3c4[nH]c5cc(OC)ccc5c4CCN3C[C@H]2C[C@@H](OC(=O)c2cc(OC)c(OC)c(OC)c2)[C@@H]1OC [reserpine] | – | decreased planaria movement
